The results in this text go back to patent US12233161B1, “Lipids and lipid nanoparticle formulations” (LONGUIDE BIOPHARMA CORPORATION, priority 2024, dated 2025).

In the assay the test system is mice. The experiment in a line: In vivo delivery of FLuc-mRNA lipid nanoparticles in mice, in vivo imaging (IVIS). The conditions noted are these: for % of organ targeting / IVIS: Fluc-mRNA LNP, formulation, molar ratio and N/P as in the table; for organ targeting specificity (spleen or lung), in words: Table 3, Fluc-mRNA, various formulations. Put shortly: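 Mice (n=3) received about 75 μL FLuc-mRNA LNP per mouse intramuscularly (rectus femoris), intravenously (tail vein), intraperitoneally or subcutaneously (back). After injection, D-luciferin (200 μL, 15 mg/mL) was given i.p. 10-15 min before IVIS imaging.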

For the compound `CCCCCCCCC(CCCCCC)C(=O)OCCCCNC(=O)C(O)CN(CCCN(C)CCCN(CC(O)C(=O)NCCCCOC(=O)C(CCCCCC)CCCCCCCC)CC(O)C(=O)NCCCCOC(=O)C(CCCCCC)CCCCCCCC)CC(O)C(=O)NCCCCOC(=O)C(CCCCCC)CCCCCCCC` (stereo not drawn) [Compound L0376], the “organ targeting specificity (spleen or lung), in words” value (shortened to “organ targeting specificity”) is recorded as “strong targeting specificity to deliver to spleen”. Further, for the setting “route IM, organ: liver”, the “% of organ targeting” value was determined as 30.06% and the IVIS was 2.21E+05. For the same compound, under “route IM, organ: lung”, the “% of organ targeting” value was determined as 5.80% and the IVIS was 4.27E+04. Besides, for the setting “route IM, organ: muscle”, the IVIS turned out to be 2.06E+07. Also, under “route IM, organ: spleen”, the “% of organ targeting” value amounted to 64.14% and the IVIS is on record as 4.72E+05. Moreover, the IVIS (route IV, organ: body) worked out at 5.58E+07. Besides, for the setting “route IV, organ: liver”, the “% of organ targeting” value amounted to 14.62% and the IVIS is reported as 1.64E+07. For the same compound, for the setting “route IV, organ: lung”, the “% of organ targeting” value is listed as 20.78% and the IVIS was found to be 2.32E+07. Moreover, under “route IV, organ: spleen”, the “% of organ targeting” value is reported as 64.60% and the IVIS was determined as 7.23E+07.
In the case of `CCCCCCCC(CCCCCCC)OC(=O)CCCNC(=O)C(O)CN(CCN(C)CCN(CC(O)C(=O)NCCCC(=O)OC(CCCCCCC)CCCCCCC)CC(O)C(=O)NCCCC(=O)OC(CCCCCCC)CCCCCCC)CC(O)C(=O)NCCCC(=O)OC(CCCCCCC)CCCCCCC` (stereo not drawn) [Compound L0383], the “organ targeting specificity” value is “strong targeting specificity to deliver to spleen”. Under “route IM, organ: liver”, the “% of organ targeting” value is recorded as 29.05% and the IVIS was 1.91E+05. Moreover, under “route IM, organ: lung”, the “% of organ targeting” value amounted to 10.07% and the IVIS amounted to 6.63E+04. In addition, the IVIS (route IM, organ: muscle) is on record as 1.78E+08. Under “route IM, organ: spleen”, the “% of organ targeting” value is reported as 60.88% and the IVIS was found to be 4.01E+05. For the setting “route IV, organ: body”, the IVIS is listed as 2.00E+09. Also, for the setting “route IV, organ: liver”, the “% of organ targeting” value is 68.14% and the IVIS was found to be 4.62E+08. Where the note is “route IV, organ: lung”, the “% of organ targeting” value amounted to 2.23% and the IVIS is given as 1.52E+07. Also, under “route IV, organ: spleen”, the “% of organ targeting” value worked out at 29.63% and the IVIS is given as 2.01E+08.
Take `CCCCCCCCN(C)C(=O)C(O)CN(CCCN(CC(O)C(=O)N(C)CCCCCCCC)CC(O)C(=O)N(C)CCCCCCCC)CCCN(CC(O)C(=O)N(C)CCCCCCCC)CC(O)C(=O)N(C)CCCCCCCC` (stereo not drawn) [Compound L0354]: the IVIS (route IM, organ not given) came out at 6.90E+06; the IVIS (route IV, organ: body) came out at 1.35E+08; the IVIS (route IV, organ: liver) was 3.14E+07; the IVIS (route IV, organ: lung) turned out to be 9.31E+05; the IVIS (route IV, organ: spleen) is on record as 3.86E+07. The “% of organ targeting” value by setting is: (route IV, organ: liver) 44.24%; (route IV, organ: lung) 1.31%; (route IV, organ: spleen) 54.45%.
Turning to `CCCCCCCCCCOC(=O)CCCNC(=O)C(O)CN(CCCN(CC(O)C(=O)NCCCC(=O)OCCCCCCCCCC)CC(O)C(=O)NCCCC(=O)OCCCCCCCCCC)CCCN(CC(O)C(=O)NCCCC(=O)OCCCCCCCCCC)CC(O)C(=O)NCCCC(=O)OCCCCCCCCCC` (stereo not drawn) [Compound L0387], the IVIS turned out to be 1.15E+05 (route IM, organ not given) and 5.23E+05 (route IV, organ not given).
Take `CCCCCCCCN(C)C(=O)C(O)CN(C)CCN(C)CCN(C)CC(O)C(=O)N(C)CCCCCCCC` (stereo not drawn) [Compound L0351]: the IVIS by setting is: (route IM, organ not given) 1.19E+06; (route IV, organ not given) 1.55E+06.
As to `CCCCCCCCC(CCCCCC)C(=O)NCCOC(=O)C(O)CN(CCN(C)CCN(CC(O)C(=O)OCCNC(=O)C(CCCCCC)CCCCCCCC)CC(O)C(=O)OCCNC(=O)C(CCCCCC)CCCCCCCC)CC(O)C(=O)OCCNC(=O)C(CCCCCC)CCCCCCCC` (stereo not drawn) [Compound L0374], the IVIS (route IM, organ not given) turned out to be 6.46E+07.
For the compound `CCCCCCC(CCCCCC)C(=O)NCCOC(=O)C(O)CN(CCCN(CC(O)C(=O)OCCNC(=O)C(CCCCCC)CCCCCC)CC(O)C(=O)OCCNC(=O)C(CCCCCC)CCCCCC)CCCN(CC(O)C(=O)OCCNC(=O)C(CCCCCC)CCCCCC)CC(O)C(=O)OCCNC(=O)C(CCCCCC)CCCCCC` (stereo not drawn) [Compound L0363], the IVIS is on record as 2.08E+07 (route IM, organ not given); 6.16E+09 (route IV, organ: body); 6.56E+08 (route IV, organ: liver); 4.56E+06 (route IV, organ: lung); 9.96E+06 (route IV, organ: spleen).
On to `CCCCCCCCN(C)C(=O)C(O)CN(CCCN(C)CCCN(CC(O)C(=O)N(C)CCCCCCCC)CC(O)C(=O)N(C)CCCCCCCC)CC(O)C(=O)N(C)CCCCCCCC` (stereo not drawn) [Compound L0350], for which the IVIS is, setting by setting: (route IM, organ not given) 1.75E+05; (route IV, organ: body) 8.43E+06; (route IV, organ: liver) 2.94E+05; (route IV, organ: lung) 2.99E+07; (route IV, organ: spleen) 8.57E+05. Also, the “% of organ targeting” value (route IV, organ: liver) came to 0.95%; the “% of organ targeting” value (route IV, organ: lung) worked out at 96.29%; the “% of organ targeting” value (route IV, organ: spleen) is 2.76%.
For the compound `CCCCCCC(CCCCCC)C(=O)OCCCCCCNC(=O)C(O)CN(CCCN(CC(O)C(=O)NCCCCCCOC(=O)C(CCCCCC)CCCCCC)CC(O)C(=O)NCCCCCCOC(=O)C(CCCCCC)CCCCCC)CCCN(CC(O)C(=O)NCCCCCCOC(=O)C(CCCCCC)CCCCCC)CC(O)C(=O)NCCCCCCOC(=O)C(CCCCCC)CCCCCC` (stereo not drawn) [Compound L0360], the IVIS was found to be 1.44E+07 (route IM, organ not given) and 4.50E+08 (route IV, organ not given).
Regarding `CCCCCCCC(CCCCCCC)OC(=O)CCCNC(=O)C(O)CN(CCCN(CC(O)C(=O)NCCCC(=O)OC(CCCCCCC)CCCCCCC)CC(O)C(=O)NCCCC(=O)OC(CCCCCCC)CCCCCCC)CCCN(CC(O)C(=O)NCCCC(=O)OC(CCCCCCC)CCCCCCC)CC(O)C(=O)NCCCC(=O)OC(CCCCCCC)CCCCCCC` (stereo not drawn) [Compound L0384], the “organ targeting specificity” value is recorded as “strong targeting specificity to deliver to spleen”. Besides, under “route IM, organ: liver”, the “% of organ targeting” value is 29.97% and the IVIS came out at 2.35E+05. For the setting “route IM, organ: lung”, the “% of organ targeting” value stood at 13.02% and the IVIS was 1.02E+05. Moreover, under “route IM, organ: muscle”, the IVIS is recorded as 2.75E+07. For the same compound, where the note is “route IM, organ: spleen”, the “% of organ targeting” value turned out to be 57.01% and the IVIS was 4.47E+05. Besides, where the note is “route IV, organ: body”, the IVIS worked out at 4.54E+08. Where the note is “route IV, organ: liver”, the “% of organ targeting” value is 54.57% and the IVIS was 1.50E+08. Moreover, for the setting “route IV, organ: lung”, the “% of organ targeting” value is 0.39% and the IVIS stood at 1.09E+06. Also, for the setting “route IV, organ: spleen”, the “% of organ targeting” value came out at 45.03% and the IVIS turned out to be 1.24E+08.
For the compound `CCCCCCC(CCCCCC)C(=O)OCCCCCCNC(=O)C(O)CN(CCN(C)CCN(CC(O)C(=O)NCCCCCCOC(=O)C(CCCCCC)CCCCCC)CC(O)C(=O)NCCCCCCOC(=O)C(CCCCCC)CCCCCC)CC(O)C(=O)NCCCCCCOC(=O)C(CCCCCC)CCCCCC` (stereo not drawn) [Compound L0359], the IVIS (route IM, organ not given) came out at 2.25E+07; the IVIS (route IV, organ: body) is listed as 2.65E+08; the IVIS (route IV, organ: liver) was found to be 5.06E+07; the IVIS (route IV, organ: lung) is listed as 9.61E+06; the IVIS (route IV, organ: spleen) was determined as 9.08E+07. Also, the “% of organ targeting” value runs as follows: (route IV, organ: liver) 33.50%; (route IV, organ: lung) 6.37%; (route IV, organ: spleen) 60.13%.
In the case of `CCCCCCCCCCOC(=O)CCCNC(=O)C(O)CN(CCN(C)CCN(CC(O)C(=O)NCCCC(=O)OCCCCCCCCCC)CC(O)C(=O)NCCCC(=O)OCCCCCCCCCC)CC(O)C(=O)NCCCC(=O)OCCCCCCCCCC` (stereo not drawn) [Compound L0386], the “organ targeting specificity” value is recorded as “more selective towards the lung”. Also, the IVIS (route IM, organ not given) is listed as 1.91E+05. Also, the IVIS (route IV, organ: body) is given as 6.49E+07. For the setting “route IV, organ: liver”, the “% of organ targeting” value is on record as 1.32% and the IVIS was 2.54E+06. Besides, for the setting “route IV, organ: lung”, the “% of organ targeting” value stood at 96.51% and the IVIS is recorded as 1.86E+08. Also, for the setting “route IV, organ: spleen”, the “% of organ targeting” value amounted to 2.17% and the IVIS is recorded as 4.18E+06.
